Data from patent publication US11773078B2, “Furin inhibitors” (Glaxosmithkline Intellectual Property Development Limited, priority 2018, dated 2023).
Structures can show the parent of a compound that is named as a salt.

Columns and labels:
[1] = target: T1, Furin (108-574-Tev-Flag-His) enzyme (Homo sapiens, UniProt P09958); experiment: Furin enzyme assay; type: biochemical
T1 construct: Furin (108-574-Tev-Flag-His) enzyme was expressed and purified from CHO cells; TEV cleavage site (C); FLAG (C); His (C); made in house; host or cells: CHO cells
T1 sequence (P09958 108-574): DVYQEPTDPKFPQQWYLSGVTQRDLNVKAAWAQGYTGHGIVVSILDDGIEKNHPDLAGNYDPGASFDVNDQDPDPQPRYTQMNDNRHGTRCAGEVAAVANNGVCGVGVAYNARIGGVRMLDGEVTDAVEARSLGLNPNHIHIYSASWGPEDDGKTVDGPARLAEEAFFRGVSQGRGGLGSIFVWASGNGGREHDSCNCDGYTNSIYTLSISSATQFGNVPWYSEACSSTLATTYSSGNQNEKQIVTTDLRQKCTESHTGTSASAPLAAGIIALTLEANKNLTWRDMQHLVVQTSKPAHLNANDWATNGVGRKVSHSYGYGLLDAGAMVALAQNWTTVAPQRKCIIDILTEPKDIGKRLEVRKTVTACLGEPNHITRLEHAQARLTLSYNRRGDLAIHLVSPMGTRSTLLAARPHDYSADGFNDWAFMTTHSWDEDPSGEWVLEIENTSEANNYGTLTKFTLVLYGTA
Protocol: Reactions were performed in black 384-well polystyrene low volume plates (Greiner). Furin (108-574-Tev-Flag-His) enzyme was expressed and purified from CHO cells. Compounds of the invention were dissolved in DMSO (1.0 mM) and serially diluted 1 to 3 with DMSO through eleven dilutions to provide a final compound concentration range from 0.00017 to 10 μM. 0.05 μL of each concentration was transferred to the corresponding well of an assay plate, and then 5 μL of 40 pM furin enzyme in assay buffer (100 mM HEPES pH7.5, 1 mM CaCl2 and 0.005% Triton X-100) was added using a Multidrop Combi (Thermo) to the compound plates, and mixed by inversion. […] The plates were centrifuged at 500×g for 1 minute and incubated at room temperature for two hours. Enzyme inhibition is then quantified using an Envision instrument (PerkinElmer).
Data were analyzed using AbaseXE 7.3, utilizing a four-parameter curve fit equation. The following values were used to define limits and/or constraints for each of the four parameters: • Minimum—limit −10 to 10 • Maximum—90 to 110 • Slope—limit 0.5 to 2.0 • pXC50 confidence interval—10
Raw counts obtained from the respective plate reader (Perkin Elmer) were captured for data analysis. Curves were generated using the equation: Y=A+[(B−A)/(1+(10^C/x)^D)] • where: A=minimum response • B=maximum response • C=log 10*XC50 • D=slope factor • x=log 10 compound concentration [M]
The results were recorded as pXC50 values (−C in the above equation)

[2] = target: T2, furin (endogenous protease) in U20S cells (Homo sapiens, UniProt P09958); experiment: Furin cell-based assay (image-based, Golgi-targeted GFP with BMP10 furin/PCSK cleavage site); conditions: 24-hour incubation, read-out: furin golgi cell pXC50 (converted);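 also: Read-out is mean GFP fluorescence of Golgi puncta per cell by high-content imaging, retained when furin inhibited, over an eleven-point 0.00017–10 µM series, four-parameter fit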
T2 construct: the endogenous protease cleaves GFP; endogenous in cells; host or cells: U2OS cells transduced with a BacMam reporter
T2 sequence (P09958 108-794): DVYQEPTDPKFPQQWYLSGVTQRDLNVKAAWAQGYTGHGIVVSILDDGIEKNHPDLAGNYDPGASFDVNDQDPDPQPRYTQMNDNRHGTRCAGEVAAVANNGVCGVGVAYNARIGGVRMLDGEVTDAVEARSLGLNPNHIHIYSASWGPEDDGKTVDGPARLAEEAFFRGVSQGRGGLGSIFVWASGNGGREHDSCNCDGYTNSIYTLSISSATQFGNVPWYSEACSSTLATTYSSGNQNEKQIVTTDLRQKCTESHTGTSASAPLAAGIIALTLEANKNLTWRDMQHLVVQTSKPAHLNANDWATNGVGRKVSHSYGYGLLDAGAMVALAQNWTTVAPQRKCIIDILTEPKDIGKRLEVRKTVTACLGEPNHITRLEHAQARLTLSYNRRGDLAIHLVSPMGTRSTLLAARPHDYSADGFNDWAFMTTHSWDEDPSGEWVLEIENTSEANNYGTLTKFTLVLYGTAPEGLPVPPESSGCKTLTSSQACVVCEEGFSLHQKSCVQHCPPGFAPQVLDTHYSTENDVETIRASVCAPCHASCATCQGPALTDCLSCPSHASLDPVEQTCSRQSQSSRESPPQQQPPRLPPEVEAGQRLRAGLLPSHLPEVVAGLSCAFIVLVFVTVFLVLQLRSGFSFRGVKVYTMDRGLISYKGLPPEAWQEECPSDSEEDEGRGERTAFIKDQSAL

SMILES	furin enzyme pIC50 [1]	EC50 [2]	IC50 ([1]; read-out: furin enzyme pIC50 (converted))
NS(=O)(=O)CC1CCN(Cc2cc(Oc3ccc(N4CCN(CCC(=O)O)CC4)nc3)nc(-c3cc(Cl)cc(Cl)c3)c2)CC1 [Example 38, 3-(4-(5-((6-(3,5-Dichlorophenyl)-4-((4-(sulfamoylmethyl)piperidin-1-yl)methyl)pyridin-2-yl)oxy)pyridin-2-yl)piperazin-1-yl)propanoic acid]	9	126 nM	
CC(=O)NCC1CCN(Cc2cc(Oc3ccc(N)cc3)cc(-c3cc(Cl)cc(Cl)c3)c2)CC1 [Example 42, N-((1-((5-(4-Aminophenoxy)-3′,5′-dichloro-[1,1′-biphenyl]-3-yl)methyl)piperidin-4-yl)methyl)acetamide]	7.7	316 nM	
CS(=O)(=O)NCC1CCN(Cc2cc(Oc3ccc(N4CCN(CCC(=O)O)CC4)nc3)nc(-c3cc(Cl)cc(Cl)c3)c2)CC1 [Example 44]	9.5	25.1 nM	
CC(=O)NCC1CCN(Cc2cc(Oc3cnc(N)c(F)c3)cc(-c3cc(Cl)cc(Cl)c3)c2)CC1 [Example 46, N-((1-((5-((6-Amino-5-fluoropyridin-3-yl)oxy)-3′,5′-dichloro-[1,1′-biphenyl]-3-yl)methyl)piperidin-4-yl)methyl)acetamide, 2 hydrochloride]	7	501 nM	
COC(=O)NCC1CCN(Cc2cc(Oc3cnc(N4CCNCC4)nc3)nc(-c3cc(Cl)cc(Cl)c3)c2)CC1 [Example 49, Methyl((1-((2-(3,5-dichlorophenyl)-6-((2-(piperazin-1-yl)pyrimidin-5-yl)oxy)pyridin-4-yl)methyl)piperidin-4-yl)methyl)carbamate, 4 hydrochloride]	9.1	20 nM	
CNCc1cc(Oc2ccc(N3CCN(CCC(=O)O)CC3)nc2)nc(-c2cc(Cl)cc(Cl)c2)c1 [Example 50, 3-(4-(5-((6-(3,5-Dichlorophenyl)-4-((methylamino)methyl)pyridin-2-yl)oxy)pyridin-2-yl)piperazin-1-yl)propanoic acid, 4 hydrochloride]	8.1	126 nM	
NC(=O)OCCN1CCN(Cc2cc(Oc3ccc(N4CCN(CCC(=O)O)CC4)nc3)nc(-c3cc(Cl)cc(Cl)c3)c2)CC1 [Example 55, 3-(4-(5-((4-((4-(2-(carbamoyloxy)ethyl)piperazin-1-yl)methyl)-6-(3,5-dichlorophenyl)pyridin-2-yl)oxy)pyridin-2-yl)piperazin-1-yl)propanoic acid]	8.2	251 nM	
COC(=O)NCC1CCN(Cc2cc(Oc3cnc(N4CC5CCC(C4)N5CCC(=O)O)nc3)nc(-c3cc(Cl)cc(Cl)c3)c2)CC1 [Example 56, 3-(3-(5-((6-(3,5-dichlorophenyl)-4-((4-(((methoxycarbonyl)amino)methyl)piperidin-1-yl)methyl)pyridin-2-yl)oxy)pyrimidin-2-yl)-3,8-diazabicyclo[3.2.1]octan-8-yl)propanoic acid]		5.01 nM	0.0316 nM
O=C(O)CCN1CCN(c2ccc(Oc3cc(CN4CCC(CNC(=O)C5CC5)CC4)cc(-c4cc(Cl)cc(Cl)c4)n3)cn2)CC1 [Example 58, 3-(4-(5-((4-((4-(cyclopropanecarboxamidomethyl)piperidin-1-yl)methyl)-6-(3,5-dichlorophenyl)pyridin-2-yl)oxy)pyridin-2-yl)piperazin-1-yl)propanoic acid]	9.2	15.8 nM	

Continued, values first:

furin enzyme pIC50 [1]	EC50 [2]	IC50 ([1]; read-out: furin enzyme pIC50 (converted))	SMILES
8.3	79.4 nM		CS(=O)(=O)CC1CCN(Cc2cc(Oc3ccc(N4CCN(CCC(=O)O)CC4)nc3)nc(-c3cc(Cl)cc(Cl)c3)c2)CC1 [Example 39, 3-(4-(5-((6-(3,5-Dichlorophenyl)-4-((4-((methylsulfonyl)methyl)piperidin-1-yl)methyl)pyridin-2-yl)oxy)pyridin-2-yl)piperazin-1-yl)propanoic acid]
7.6	10 nM		CNC(=O)NCC1CCN(Cc2cc(Oc3ccc(N4CCN(CCO)CC4)nc3)nc(-c3cc(Cl)cc(Cl)c3)c2)CC1 [Example 40, 1-((1-((2-(3,5-Dichlorophenyl)-6-((6-(4-(2-hydroxyethyl)piperazin-1-yl)pyridin-3-yl)oxy)pyridin-4-yl)methyl)piperidin-4-yl)methyl)-3-methylurea]
8.9	3.98 nM		CNC(=O)NCC1CCN(Cc2cc(Oc3cnc(N4CCN(CCO)CC4)nc3)nc(-c3cc(Cl)cc(Cl)c3)c2)CC1 [Example 47, 1-((1-((2-(3,5-Dichlorophenyl)-6-((2-(4-(2-hydroxyethyl)piperazin-1-yl)pyrimidin-5-yl)oxy)pyridin-4-yl)methyl)piperidin-4-yl)methyl)-3-methylurea, 4 hydrochloride]
9.4	2.51 nM		CNC(=O)NCC1CCN(Cc2cc(Oc3cnc(N4CCN(CCCS(N)(=O)=O)CC4)nc3)nc(-c3cc(Cl)cc(Cl)c3)c2)CC1 [Example 48, 3-((4-(5-((6-(3,5-Dichlorophenyl)-4-((4-((3-methylureidolmethyl)piperidin-1-yl)methyl)pyridin-2-yl)oxy)pyrimidin-2-yl)piperazin-1-yl)propane-1-sulfonamide. 4 hydrochloride]
8.2	158 nM		COC(=O)NCC1(F)CCN(Cc2cc(Oc3cnc(N4CCN(CCC(=O)O)CC4)nc3)nc(-c3cc(Cl)cc(Cl)c3)c2)CC1 [Example 51, 3-((4-(5-((6-(3,5-Dichlorophenyl)-4-((4-fluoro-4-(((methoxycarbonyl)amino)methyl)piperidin-1-yl)methyl)pyridin-2-yl)oxy)pyrimidin-2-yl)piperazin-1-yl)propanoic acid, 4 hydrochloride]
9.8	1.26 nM		CN1CCN(c2ncc(Oc3cc(CN4CCC(CCO)CC4)cc(-c4cc(Cl)cc(Cl)c4)n3)cn2)CC1 [Example 52, 2-(1-((2-(3,5-Dichlorophenyl)-6-((2-(4-methylpiperazin-1-yl)pyrimidin-5-yl)oxy)pyridin-4-yl)methyl)piperidin-4-yl)ethanol]
8.7	15.8 nM		CN1CCN(c2ncc(Oc3cc(CN4CCC(OCC(=O)O)CC4)cc(-c4cc(Cl)cc(Cl)c4)n3)cn2)CC1 [Example 53, 2-((1-((2-(3,5-Dichlorophenyl)-6-((2-(4-methylpiperazin-1-yl)pyrimidin-5-yl)oxy)pyridin-4-yl)methyl)piperidin-4-yl)oxy)acetic acid, 4 hydrochloride]
8.2	158 nM		NC(=O)OCCN1CCN(Cc2cc(Oc3cnc(N4CCN(CCC(=O)O)CC4)nc3)nc(-c3cc(Cl)cc(Cl)c3)c2)CC1 [Example 54, 3-(4-(5-((4-((4-(2-(Carbamoyloxy)ethyl)piperazin-1-yl)methyl)-6-(3,5-dichlorophenyl)pyridin-2-yl)oxy)pyrimidin-2-yl)piperazin-1-yl)propanoic acid, 5 hydrochloride]
10.3	10 nM		CC(CCN1CCN(c2ncc(Oc3cc(CN4CCC(CCO)CC4)cc(-c4cc(Cl)cc(Cl)c4)n3)cn2)CC1)C(=O)O (centres unmarked) [Example 57, 4-(4-(5-((6-(3,5-dichlorophenyl)-4-((4-(2-hydroxyethyl)piperidin-1-yl)methyl)pyridin-2-yl)oxy)pyrimidin-2-yl)piperazin-1-yl)-2-methylbutanoic acid]
8.9	6.31 nM		CCC(=O)NCC1CCN(Cc2cc(Oc3cnc(N4CCN(CCC(C)C(=O)O)CC4)nc3)nc(-c3cc(Cl)cc(Cl)c3)c2)CC1 (centres unmarked) [Example 59, 4-(4-(5-((6-(3,5-dichlorophenyl)-4-((4-(propionamidomethyl)piperidin-1-yl)methyl)pyridin-2-yl)oxy)pyrimidin-2-yl)piperazin-1-yl)-2-methylbutanoic acid]
7.6	15.8 nM		CC(O)CCN1CCN(c2ncc(Oc3cc(CN4CCC(F)CC4)cc(-c4cc(Cl)cc(Cl)c4)n3)cn2)CC1 (centres unmarked) [Example 60, 4-(4-(5-((6-(3,5-dichlorophenyl)-4-((4-fluoropiperidin-1-yl)methyl)pyridin-2-yl)oxy)pyrimidin-2-yl)piperazin-1-yl)butan-2-ol]
9.2	158 nM		CC(=O)NCC1CCN(Cc2cc(Oc3cnc(N4CCN(CCC(=O)O)CC4)nc3)nc(-c3cc(Cl)cc(C(F)F)c3)c2)CC1 [Example 61, 3-(4-(5-((4-((4-(acetamidomethyl)piperidin-1-yl)methyl)-6-(3-chloro-5-(difluoromethyl)phenyl)pyridin-2-yl)oxy)pyrimidin-2-yl)piperazin-1-yl)propanoic acid]
10.8	7.94 nM		COC(=O)NCC1CCN(Cc2cc(Oc3cnc(N4CCN(C)CC4)nc3)nc(-c3cc(Cl)cc(Cl)c3)c2)CC1 [Example 63, Methyl ((1-1(2-(3,5-dichlorophenyl)-6-((2-(4-methylpiperazin-1-yl)pyrimidin-5-yl)oxy)pyridin-4-yl)methyl)piperidin-4-yl)methyl)carbamate, 4 hydrochloride]
